Results reported in patent publication US12180159B2, “Activators of the unfolded protein response” (The Board of Trustees of the University of Illinois, priority 2018, dated 2024).

What was measured:
TYS-Luc cells = assay: Long-term cell culture experiment, TYS-Luc cells (MTS); format: cell-based, human; conditions: 2 weeks 1 μM, then 4 weeks without drug
Procedure: To simulate the effect of several weeks of treatment of a tumor in a mouse xenograft, long-term cell culture experiments were performed. TYS-Luc cells (T47DERαY537S-Luc cells; ERαY537S is the most lethal ERα mutation seen in metastatic breast cancer) were plated at 4,000 cells/well in 96 well plates. […] After 2 weeks (medium change every 2 days) cell number was determined using MTS and a standard curve of absorbance versus cell number for TYS-Luc cells. Notes: (i) Bars denote the BHPI and (−)-105 arms of the experiment. No drug is present during regrow. […] This allows any surviving cells to regrow. After 4 weeks the cells were assayed using MTS. […] (Note: Visual inspection of the wells confirmed that there were no cells in the well treated for 2 weeks with active (−)-105.) To test whether the cells that regrew after BHPI treatment were resistant to BHPI they were re-treated for another cycle (BHPI Retreat) and shown to retain sensitivity to BHPI killing. (n=8 biological replicates±SEM.

MCF-7 tumors = assay: MCF-7 orthotopic tumor model; format: in vivo, mouse
Procedure: FIG. 39. SERK-F6 eradicates wild-type ERα tumors via hyperactivation of aUPR. a, MCF-7 orthotopic tumors were established in Nu/J ovariectomized mice supplemented with a 60 day E2 pellet (0.36 mg) and grown to ˜400 mm^3 (28 days to establish), randomized, then treated with vehicle daily (n=3), vehicle weekly (n=3), fulv. weekly (5 mg/mouse, s.c., n=6), SERK-F6 daily (10 or 40 mg/kg p.o.). Vehicle arms were averaged. p values: *: p<0.05, **: p<0.01, ***: p<0.001, ****: p<0.0001. Tumor images were taken at the end of the study (day 21) and are representative of all tumors (n=6). b-e, MCF-7 cells were orthotopically bi-laterally grafted and tumors were grown until total tumor burden was ˜ 400 mm^3 prior to daily treatment with vehicle or SERK-F6 (40 mg/kg p.o.). Mice (n=5 per arm) were sacrificed after 3 days (b,c) and 7 days (d,e) and tumors harvested. […] Vinculin (Vin) was used as a loading control. […] Error bars represent S.E.M.
FIG. 40. SERK-F6 is tolerated, reaches biologically relevant concentrations, and crosses the blood-brain barrier in vivo. a, Serum concentrations of SERK-F6 after indicated doses, route of administration, and time. Concentration was determined via LC/MS/MS analysis. […] AUC: Area Under the Curve, Cmax: maximum concentration, t1/2: half-life. c,d, Mice (CD-1) were treated with the indicated doses and times, then sacrificed and their serum and brains collected. Concentrations were determined via LC/MS/MS analysis. […] Treatment arms: vehicle daily (n=3), vehicle weekly (n=3), fulv. weekly (5 mg/mouse, s.c., n=6), SERK-F6 daily (10 or 40 mg/kg p.o.). Vehicle arms were combined. g, Mass of tumors harvested from mice. h, observed murine weight during this MCF-7 study (n=6). i,j, Tumor measurements for MCF-7 bilateral orthotopic model (n=4-5).
To probe the efficacy of SERK-F6 for killing ERα positive tumors, large MCF-7 tumors were grown and then intervened with therapy. […] The mice were then sacrificed prior to complete tumor eradication.

TDG cells (T47DERαD538G) = assay: Trypan Blue exclusion cell death assay, TDG cells; format: cell-based, human; conditions: dose response, 24 hours, TDG-Luc cells
Source text: TRYPAN BLUE: For decades, viable cells have been measured by their ability to exclude the dye Trypan Blue. […] Dead cells, which have lost membrane integrity, take up the dye and are blue. Thus, the percentage of dead cells is the percentage of cells that are Trypan Blue positive out of the total cell population. Quantitative assessment of Trypan Blue uptake uses a cell counter from Fisher. Since the assay is instrument based, there is no observer bias in determining the percentage of Trypan Blue positive cells.
TRYPAN BLUE ASSAYS: Assays are performed on cells in 6 well plates: 300,000 cells are plated in each well of a 6 well plate in 3 ml of medium. After 24 hours, the DMSO vehicle or the indicated compound is added (in 1000th of the vol.) The cells incubated for an additional 24 hours, and then harvested in 0.25 ml of trypsin, followed after harvest by 0.75 ml of medium. The cells are spun down and resuspended in 100-200 μl of medium left that is over the cell pellet (resuspend cells by pipetting up and down a few times). Add 10 μl to 10 μl of trypan blue. Then 10 μl is inserted into the counting slide. After inserting the slide into the Fisher TC20 counting is automatic (these many cells are needed because an accurate ratio of Trypan Blue positive to Trypan Blue negative cells requires about 200 cells in the field the instrument counts).
The Trypan Blue cell death assay was used to evaluate the ability of the active enantiomer of C-105 [(−)-105] to kill ERα positive TDG-Luc cells. For all studies, 300,000 TDG-Luc cells/well in 10% FBS were plated in a 6 well plate in triplicate. 24 hours after plating, the indicated concentrations the active enantiomer of (−)-105, or BHPI (top) ICI, or OHT (Lower left) or (+)-105 (lower right) were added. After 24 hours, the cells were harvested, and the % dead cells was determined by automated Trypan Blue exclusion using the Countess II automated hemocytometer. Percentage of viable cells was calculated by doing 100−(Cell Death %). (n=3±SEM).
TDG cells were incubated for 24 hours with 75 nM of BHPI or 75 nM of each of the indicated test compounds: 4, 6 and (±)-105 (enantiomers not separated). Cell death was determined using the instrument-based Trypan Blue exclusion assay. Structures are in the Synthesis section. […] (n=3±SEM).

[1] = system: (BHPI-sensitive) parental T47D cells; assay: Growth of parental T47D cells (MTS); format: cell-based, human; conditions: 100 nM and 1 μM, 4 days
Procedure: ERα containing T47D human breast cancer cells able to survive in 1 μM BHPI were selected by clonal outgrowth. The effect of 100 nM and 1 μM BHPI and (−)-105 on growth of the (BHPI-sensitive) parental T47D cells and partially BHPI-resistant T47D clones 1, 3, 8, and 11 was evaluated. 4,000 cells/well were plated. Cell number was determined by MTS assay from a standard curve of absorbance versus cell number. […] Thus, in 4 days (−)-105 killed some, but not all, of the resistant cells.

## O=C1Nc2c(C(F)(F)F)cccc2C1(c1ccc(O)cc1)c1ccc(OC(F)(F)F)cc1 (single isomer, unassigned; (-)) [(−)-105, 3-(4-hydroxyphenyl)-3-(4-(trifluoromethoxy)phenyl)-7-(trifluoromethyl)indolin-2-one]
TYS-Luc cells
  regrowth of cells after treatment: no regrowth
MCF-7 tumors; 40 mg/kg p.o., tumors harvested before eradication
  in-vivo UPR markers in tumors: increases in P-PERK and P-eiF2alpha levels
MCF-7 tumors; mouse, in vivo
  effect on large established MCF-7 tumors: dramatic tumor regressions
TDG cells (T47DERαD538G)
  killing of TDG-Luc cells: superior to BHPI
[1]
  growth / killing of parental T47D cells: killed all the T47D cells
